Structures can show the parent of a compound that is named as a salt. Active and inactive are the calls of the source.
Columns and labels:
[1] = target: T1, Sentrin-specific protease 1 (Homo sapiens, UniProt Q9P0U3); assay: Dose response confirmation of small molecule inhibitors of the catalytic domain of the SUMO protease, SENP1 in a FRET assay.; type: functional; details: read-out: IC50_Mean
T1 sequence (Q9P0U3 whole entry): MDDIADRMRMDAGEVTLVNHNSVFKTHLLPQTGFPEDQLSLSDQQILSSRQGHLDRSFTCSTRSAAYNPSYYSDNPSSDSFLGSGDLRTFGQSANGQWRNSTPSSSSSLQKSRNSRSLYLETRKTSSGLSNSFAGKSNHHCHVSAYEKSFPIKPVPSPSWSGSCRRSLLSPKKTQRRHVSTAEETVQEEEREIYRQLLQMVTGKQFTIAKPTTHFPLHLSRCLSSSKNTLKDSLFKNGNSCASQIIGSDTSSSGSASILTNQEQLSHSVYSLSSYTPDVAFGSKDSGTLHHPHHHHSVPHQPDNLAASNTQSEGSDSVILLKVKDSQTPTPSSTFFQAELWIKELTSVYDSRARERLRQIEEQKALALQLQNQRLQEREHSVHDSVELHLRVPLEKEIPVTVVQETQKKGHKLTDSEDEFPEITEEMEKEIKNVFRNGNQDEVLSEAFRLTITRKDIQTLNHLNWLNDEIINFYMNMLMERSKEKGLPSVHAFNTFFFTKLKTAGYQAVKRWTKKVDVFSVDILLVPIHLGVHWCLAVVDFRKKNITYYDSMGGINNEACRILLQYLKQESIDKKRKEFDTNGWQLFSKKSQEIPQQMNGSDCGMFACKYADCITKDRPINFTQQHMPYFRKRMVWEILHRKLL

[2] = target: T1, Sentrin-specific protease 1; assay: potency of human SENP1 inhibitors, dose response, biochemical, kinetic FRET (AID 651697); type: functional; details: read-out: IC50_Mean
Mu-type opioid receptor = Mu-type opioid receptor (Homo sapiens, UniProt P35372); type: functional, cell-based;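 note: U2OS cells with beta-arrestin recruitment to OPRM1 by beta-gal complementation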
[3] = CRF-BP/CRF-R2 complex antagonists, dose response, cell-based, uHTS hits, 384-well (AID 651639); type: functional, Homo sapiens; details: read-out: IC50_Mean
[4] = target: T2, Long-chain-fatty-acid--AMP ligase FadD28 (Mycobacterium tuberculosis, UniProt P9WQ59); assay: Fluorescence polarization aasay to screen for inhibitors that compete for the binding of FadD28 to a bisubstrate Measured in Biochemical System Using Plate Reader - 2147-01_Inhibitor_Dose_CherryPick_Activity.; type: functional, Mycobacterium tuberculosis H37Rv
T2 sequence (P9WQ59 whole entry): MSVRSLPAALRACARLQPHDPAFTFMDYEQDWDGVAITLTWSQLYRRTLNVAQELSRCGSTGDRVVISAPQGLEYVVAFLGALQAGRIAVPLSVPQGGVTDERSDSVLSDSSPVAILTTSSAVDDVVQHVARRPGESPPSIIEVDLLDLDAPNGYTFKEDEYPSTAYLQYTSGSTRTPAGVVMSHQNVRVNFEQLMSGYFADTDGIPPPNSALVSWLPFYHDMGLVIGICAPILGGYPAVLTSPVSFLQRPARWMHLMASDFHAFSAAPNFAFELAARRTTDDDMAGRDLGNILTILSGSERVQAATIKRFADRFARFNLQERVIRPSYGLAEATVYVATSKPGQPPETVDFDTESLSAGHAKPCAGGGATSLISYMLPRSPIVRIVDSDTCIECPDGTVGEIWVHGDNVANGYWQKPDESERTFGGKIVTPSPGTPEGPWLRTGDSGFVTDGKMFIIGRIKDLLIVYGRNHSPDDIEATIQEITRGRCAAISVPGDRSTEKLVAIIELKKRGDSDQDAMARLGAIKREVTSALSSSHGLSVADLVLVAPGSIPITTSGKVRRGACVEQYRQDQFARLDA

Genome polyprotein = Genome polyprotein (dengue virus type 2, UniProt P29990); assay: Dengue-2 NS5 methyltransferase inhibitors, primary screen, biochemical, confirmation dose response (AID 588689); type: functional
[5] = target: T3, Corticotropin-releasing factor receptor 2/Corticotropin-releasing factor-binding protein (Homo sapiens, UniProt P24387+Q13324); assay: activators of CRF receptor 2 with binding protein – uHTS hits, confirmation (AID 602473); type: functional; details: read-out: EC50_Mean
T3 sequence (Q13324 whole entry): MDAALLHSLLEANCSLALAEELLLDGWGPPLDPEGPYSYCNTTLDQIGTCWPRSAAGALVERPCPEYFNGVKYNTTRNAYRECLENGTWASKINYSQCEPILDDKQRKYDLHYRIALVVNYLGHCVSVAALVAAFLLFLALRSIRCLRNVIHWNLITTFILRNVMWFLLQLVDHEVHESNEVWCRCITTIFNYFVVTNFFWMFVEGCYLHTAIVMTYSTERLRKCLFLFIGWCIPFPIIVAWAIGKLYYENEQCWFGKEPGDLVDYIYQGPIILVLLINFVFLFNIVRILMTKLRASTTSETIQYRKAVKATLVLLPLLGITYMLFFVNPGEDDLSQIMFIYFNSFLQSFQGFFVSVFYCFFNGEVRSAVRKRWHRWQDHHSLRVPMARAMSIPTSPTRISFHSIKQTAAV
T3 sequence (P24387 whole entry): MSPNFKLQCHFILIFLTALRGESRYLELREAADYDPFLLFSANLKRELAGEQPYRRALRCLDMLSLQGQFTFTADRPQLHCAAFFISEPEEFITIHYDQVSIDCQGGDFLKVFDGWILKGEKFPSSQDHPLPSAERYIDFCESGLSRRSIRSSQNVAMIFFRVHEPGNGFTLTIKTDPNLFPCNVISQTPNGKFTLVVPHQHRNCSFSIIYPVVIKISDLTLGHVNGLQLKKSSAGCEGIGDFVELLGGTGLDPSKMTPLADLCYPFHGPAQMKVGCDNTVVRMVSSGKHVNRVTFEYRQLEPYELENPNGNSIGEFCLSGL

[6] = target: T3, Corticotropin-releasing factor receptor 2/Corticotropin-releasing factor-binding protein; assay: Dose Response confirmation of uHTS hits for small molecule antagonists of the CRF-binding protein and CRF-R2 receptor complex.; type: functional; details: read-out: IC50_Mean
[7] = miR-122 activators in hepatoma reporter cells, dose response, cell-based, Huh7 psiCHECK-miR122, Renilla luciferase, cherry-picked (AID 651956); type: functional;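 note: huh7 hepatoma cells stably carrying a psiCHECK-2 miR-122 sensor plasmid; renilla luciferase signal reporting endogenous miR-122 activity after 48 h compound exposure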
[8] = target: Fructose-bisphosphate aldolase (Mycobacterium tuberculosis, UniProt P9WQA3); assay: Fluorescence-based biochemical high throughput dose response assay for inhibitors of the fructose-bisphosphate aldolase (FBA) of M. tuberculosis.; type: functional
[9] = inhibitors of HIV Env-driven cell fusion, dose response, cherry-pick (AID 652057); type: functional, cell-based
[10] = ZM109 Env clade C HIV-1 fusion inhibitors, dose response, HeLa effector, CEM target cells, luciferase, cherry-pick (AID 652058); type: functional, cell-based
[11] = CEM21 lymphoblast cell cytotoxicity, dose response, cytotoxicity control for viral fusion inhibitor project, CellTiter-Glo luminescence, cherry-picked (AID 652042); type: functional, cell-based;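 note: potency for signal decrease meaning cytotoxicity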
[12] = off-target signal loss in HeLa-CEM21 co-culture – HeLa F-luc CTL cells, cherry-picked, counter-screen for HIV-1 Env fusion inhibitor project, dose response (AID 652040); type: functional, cell-based;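 note: potency for signal decrease marking cytotoxic or nonspecific inhibition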
[13] = inhibitors of clade B AD8 Env fusion, dose response, cell-based, cherry-pick (AID 652062); type: functional;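 note: luciferase signal from cell-cell fusion driven by HIV-1 clade B AD8 Env; potency is for inhibitors of fusion seen as a drop in luminescence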

Mu-type opioid receptor, sequence (P35372 whole entry): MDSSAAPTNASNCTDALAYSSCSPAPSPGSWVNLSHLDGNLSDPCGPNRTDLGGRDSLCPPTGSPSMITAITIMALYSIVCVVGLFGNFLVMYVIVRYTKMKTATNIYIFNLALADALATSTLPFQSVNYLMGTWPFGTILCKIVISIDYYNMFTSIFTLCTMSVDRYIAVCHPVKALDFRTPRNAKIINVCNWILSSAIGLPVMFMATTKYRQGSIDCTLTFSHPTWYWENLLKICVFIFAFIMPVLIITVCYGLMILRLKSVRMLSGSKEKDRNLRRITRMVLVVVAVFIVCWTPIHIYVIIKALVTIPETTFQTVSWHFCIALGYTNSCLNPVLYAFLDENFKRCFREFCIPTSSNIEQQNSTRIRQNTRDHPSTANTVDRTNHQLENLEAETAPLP
Genome polyprotein, sequence (P29990 2492-3391 limits assumed): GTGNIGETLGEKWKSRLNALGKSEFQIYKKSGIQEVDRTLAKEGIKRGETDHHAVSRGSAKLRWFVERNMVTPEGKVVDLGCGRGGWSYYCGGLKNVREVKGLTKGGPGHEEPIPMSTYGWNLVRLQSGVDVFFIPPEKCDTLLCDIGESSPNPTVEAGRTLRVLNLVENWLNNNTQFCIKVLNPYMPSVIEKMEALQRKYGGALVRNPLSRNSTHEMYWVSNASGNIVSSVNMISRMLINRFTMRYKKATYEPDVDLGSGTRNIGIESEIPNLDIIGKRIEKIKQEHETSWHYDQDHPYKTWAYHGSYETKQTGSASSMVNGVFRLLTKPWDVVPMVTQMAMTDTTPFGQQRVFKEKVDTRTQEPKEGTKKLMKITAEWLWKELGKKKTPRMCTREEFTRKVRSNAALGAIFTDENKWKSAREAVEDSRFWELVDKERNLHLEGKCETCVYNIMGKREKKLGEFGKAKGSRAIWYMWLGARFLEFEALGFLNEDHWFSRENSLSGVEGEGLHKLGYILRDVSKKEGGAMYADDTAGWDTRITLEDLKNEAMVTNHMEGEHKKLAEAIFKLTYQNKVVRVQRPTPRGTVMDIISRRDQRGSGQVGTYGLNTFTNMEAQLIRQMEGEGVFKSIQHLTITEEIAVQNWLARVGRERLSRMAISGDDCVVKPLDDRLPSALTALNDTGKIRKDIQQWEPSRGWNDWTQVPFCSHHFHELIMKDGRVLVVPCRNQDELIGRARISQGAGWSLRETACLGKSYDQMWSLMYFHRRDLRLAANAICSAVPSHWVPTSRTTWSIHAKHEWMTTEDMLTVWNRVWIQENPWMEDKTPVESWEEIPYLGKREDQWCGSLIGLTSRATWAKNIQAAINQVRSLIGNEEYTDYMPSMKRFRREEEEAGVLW
Fructose-bisphosphate aldolase, sequence (P9WQA3 whole entry, the tested form may be a part): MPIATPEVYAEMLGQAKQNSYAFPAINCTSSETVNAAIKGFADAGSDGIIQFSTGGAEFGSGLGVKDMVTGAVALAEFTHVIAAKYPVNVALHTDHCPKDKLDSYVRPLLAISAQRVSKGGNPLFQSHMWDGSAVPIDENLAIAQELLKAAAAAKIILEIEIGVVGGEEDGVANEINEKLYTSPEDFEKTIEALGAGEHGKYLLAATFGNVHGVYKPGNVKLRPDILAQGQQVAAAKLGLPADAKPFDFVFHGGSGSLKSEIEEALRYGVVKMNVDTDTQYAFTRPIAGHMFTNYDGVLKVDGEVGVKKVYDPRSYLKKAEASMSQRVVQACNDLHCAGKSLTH

## COc1ccccc1NC(=O)CONC(=N)CC(=O)NC1CCCCC1
[1]
  IC50: 12.5 µM (active)
[2]
  IC50: 14.1 µM (active)

## CC(CCc1ccc(O)cc1)NCCc1ccc(O)c(O)c1 (stereo not given) [DOBUTAMINE HYDROCHLORIDE]
Mu-type opioid receptor
  EC50: 92.5 µM (inactive)

## C=CCOc1ccc(/C=C2\SC(=S)N(NS(=O)(=O)c3ccccc3)C2=O)cc1
[3]
  IC50: 6.69 µM (active)
[4]
  AC50: > 100 µM (inactive)
Genome polyprotein
  IC50: 30.4 µM (active)
[5]
  EC50: > 53 µM (inactive)
[6]
  IC50: 3.68 µM (active)

## CCCCN(CCCC)C(=O)CN(C)S(=O)(=O)c1ccc2c(c1)n(C)c(=O)c(=O)n2C
[7]
  AC50: 1.4 µM (active)

## COc1ccc(NC(=O)C2(C)Cc3c(-c4ccc(N(C)C)cc4)ccnc3O2)cc1OC (stereo not given)
[8]
  IC50: 0.731 µM (active)

## OCC1OC(n2ccc3c(NO)ncnc32)C(O)C1O (stereo not given)
[9]
  AC50: 2.35 µM (active)
[10]
  AC50: 2.44 µM (active)
[11]
  AC50: 0.641 µM (active)
[12]
  AC50: 2.65 µM (active)
[13]
  AC50: 4.53 µM (active)

Reference: ChEMBL document CHEMBL1201862, “PubChem BioAssay data set” (2004)
